Assay results: patent US20020137929A1, “1 - (3-heterocyclylphenyl) isothiourea, -isourea, -guanidine and -amidine herbicidal agents” (Intellectual Property Department, BASF Aktiengesellschaft, priority 1998, published 2002)

Columns and labels:
[1] = system: CHEAL (Lambsquarters, Common); assay: Preemergence herbicidal evaluation; format: in vivo, Chenopodium album; conditions: rated 4-5 weeks after treatment, rating scale 0-9
How it was run: (§1)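 Test compound, dissolved in aqueous acetone, was sprayed over planted soil cups at an equivalent of about 0.0156 to 0.500 kg/ha; seeds had been mixed with potting soil. Greenhouse growth followed, with visual 0-9 scoring of injury at four to five weeks.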

[2] = system: GALAP (Galium); assay: Postemergence herbicidal evaluation; format: in vivo, Galium aparine; conditions: postemergence
How it was run: (§2)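 Seedlings grown about two weeks were sprayed at 40 psi with compound dispersed in 50/50 acetone/water plus 0.5% TWEEN 20, at about 0.0156 to 0.500 kg/ha. Plants were kept in the greenhouse and scored 4–5 weeks later on a 0–9 visual scale against untreated controls.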

[3] = system: CYPIR (Rice Flatsedge); assay: Preemergence weed control under flooded paddy conditions; format: in vivo, Cyperus iria; conditions: rated 3-4 weeks after treatment
How it was run: (§3)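 Ratings on a 0-9 visual scale cover stand, vigor, malformation, size, chlorosis and overall appearance relative to a control, taken three to four weeks post-treatment. Application was into flood water over freshly sown silt loam at roughly 0.0313 to 0.500 kg/ha.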

[4] = system: AMBEL (Ragweed, Common); assay: Preemergence herbicidal evaluation; format: in vivo, Ambrosia artemisifolia; conditions: rated 4-5 weeks after treatment, rating scale 0-9
How it was run: as §1

[5] = system: ZEAMX (Corn, Field); assay: Preemergence herbicidal evaluation; format: in vivo, Zea mays; conditions: rated 4-5 weeks after treatment, rating scale 0-9
How it was run: as §1

[6] = system: TRZAWR (Wheat, Winter, cv Riband); assay: Preemergence herbicidal evaluation; format: in vivo, Triticum aestivum; conditions: rated 4-5 weeks after treatment, rating scale 0-9
How it was run: as §1

[7] = system: ORYSAT (Rice, Tebonnet); assay: Preemergence herbicidal evaluation; format: in vivo, Oryza sativa, (L.) Tebonnet; conditions: rated 4-5 weeks after treatment, rating scale 0-9
How it was run: as §1

[8] = system: CYPSE (Flatsedge); assay: Preemergence weed control under flooded paddy conditions; format: in vivo, Cyperus serotinus; conditions: rated 3-4 weeks after treatment
How it was run: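 Seeds or propagules sown in silt loam kept flooded 1.5-3 cm; compounds in 50/50 acetone/water pipetted into flood water at about 0.0313 to 0.500 kg/ha. Greenhouse; visual 0-9 rating versus untreated control 3-4 weeks after treatment.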

[9] = system: CASOB (Sicklepod); assay: Postemergence herbicidal evaluation; format: in vivo, Cassia obtusifolia; conditions: postemergence
How it was run: as §2

[10] = system: IPOHE (Morningglory, Ivyleaf); assay: Preemergence herbicidal evaluation; format: in vivo, Ipomoea hederacea; conditions: rated 4-5 weeks after treatment, rating scale 0-9
How it was run: as §1

[11] = system: ECHORC (Watergrass (Calif.)); assay: Preemergence weed control under flooded paddy conditions; format: in vivo, Echinochloa oryzoides; conditions: rated 3-4 weeks after treatment
How it was run: as §3

[12] = system: ZEAMX (Corn, Field); assay: Postemergence herbicidal evaluation; format: in vivo, Zea mays; conditions: postemergence
How it was run: as §2

COc1cccc(CN2C(=O)CSC2=Nc2cc(-n3c(=O)cc(C(F)(F)F)n(C)c3=O)c(F)cc2Cl)c1 [Compound 137, 3-{4-Chloro-2-fluoro-5-{[3-(m-methoxybenzyl)-4-oxo-2-thiazolidinylidene]amino}phenyl}-1-methyl-6-(trifluoromethyl)-2,4(1H,3H)-pyrimidinedione]
1.0: herbicidal rating GALAP ([2]; rate 0.0156 kg/ha) | herbicidal rating GALAP ([2]; rate 0.0313 kg/ha) | herbicidal rating CASOB ([9]; rate 0.0156 kg/ha) | herbicidal rating CASOB ([9]; rate 0.0313 kg/ha) | Preemergence herbicidal rating IPOHE ([10]; rate 0.2500 kg/ha)
7.0: Preemergence herbicidal rating AMBEL ([4]; rate 0.2500 kg/ha)
4.0: herbicidal effect rating, CYPIR ([3]; 0.2500 kg/ha) | herbicidal rating CASOB ([9]; rate 0.0625 kg/ha) | herbicidal rating ZEAMX ([12]; rate 0.0156 kg/ha) | herbicidal rating ZEAMX ([12]; rate 0.0313 kg/ha) | herbicidal rating ZEAMX ([12]; rate 0.0625 kg/ha)
5.0: herbicidal effect rating, ECHORC ([11]; 0.2500 kg/ha)
9.0: Preemergence herbicidal rating CHEAL ([1]; rate 0.0625 kg/ha) | Preemergence herbicidal rating CHEAL ([1]; rate 0.1250 kg/ha) | Preemergence herbicidal rating CHEAL ([1]; rate 0.2500 kg/ha)
2.0: herbicidal effect rating, CYPIR ([3]; 0.0625 kg/ha) | herbicidal effect rating, CYPIR ([3]; 0.1250 kg/ha)
3.0: herbicidal rating GALAP ([2]; rate 0.0625 kg/ha) | herbicidal effect rating, CYPIR ([3]; 0.0313 kg/ha) | herbicidal effect rating, ECHORC ([11]; 0.0313 kg/ha) | herbicidal effect rating, ECHORC ([11]; 0.0625 kg/ha) | herbicidal effect rating, ECHORC ([11]; 0.1250 kg/ha)
0.0: Preemergence herbicidal rating AMBEL ([4]; rate 0.0625 kg/ha) | Preemergence herbicidal rating AMBEL ([4]; rate 0.1250 kg/ha) | Preemergence herbicidal rating ZEAMX ([5]; rate 0.0625 kg/ha) | Preemergence herbicidal rating ZEAMX ([5]; rate 0.1250 kg/ha) | Preemergence herbicidal rating ZEAMX ([5]; rate 0.2500 kg/ha) | Preemergence herbicidal rating TRZAWR ([6]; rate 0.0625 kg/ha) | Preemergence herbicidal rating TRZAWR ([6]; rate 0.1250 kg/ha) | Preemergence herbicidal rating TRZAWR ([6]; rate 0.2500 kg/ha) | Preemergence herbicidal rating ORYSAT ([7]; rate 0.0625 kg/ha) | Preemergence herbicidal rating ORYSAT ([7]; rate 0.1250 kg/ha) | Preemergence herbicidal rating ORYSAT ([7]; rate 0.2500 kg/ha) | herbicidal effect rating, CYPSE ([8]; 0.0313 kg/ha) | herbicidal effect rating, CYPSE ([8]; 0.0625 kg/ha) | herbicidal effect rating, CYPSE ([8]; 0.1250 kg/ha) | herbicidal effect rating, CYPSE ([8]; 0.2500 kg/ha) | Preemergence herbicidal rating IPOHE ([10]; rate 0.0625 kg/ha) | Preemergence herbicidal rating IPOHE ([10]; rate 0.1250 kg/ha)

COc1ccc(CN2C(=O)CSC2=Nc2cc(-n3c(=O)cc(C(F)(F)F)n(C)c3=O)c(F)cc2Cl)c(OC)c1 [Compound 139, 3-{4-Chloro-5-{[3-(2,4-dimethoxybenzyl)-4-oxo-2-thiazolidinylidene]amino}-2-fluorophenyl}-1-methyl-6-(trifluoromethyl)-2,4(1H,3H)-pyrimidinedione]
1.0: herbicidal rating GALAP ([2]; rate 0.0156 kg/ha) | Preemergence herbicidal rating AMBEL ([4]; rate 0.0313 kg/ha) | Preemergence herbicidal rating ZEAMX ([5]; rate 0.2500 kg/ha) | Preemergence herbicidal rating TRZAWR ([6]; rate 0.2500 kg/ha) | Preemergence herbicidal rating ORYSAT ([7]; rate 0.1250 kg/ha)
0.0: Preemergence herbicidal rating CHEAL ([1]; rate 0.0156 kg/ha) | Preemergence herbicidal rating AMBEL ([4]; rate 0.0156 kg/ha) | Preemergence herbicidal rating AMBEL ([4]; rate 0.0625 kg/ha) | Preemergence herbicidal rating ZEAMX ([5]; rate 0.0156 kg/ha) | Preemergence herbicidal rating ZEAMX ([5]; rate 0.0313 kg/ha) | Preemergence herbicidal rating ZEAMX ([5]; rate 0.0625 kg/ha) | Preemergence herbicidal rating ZEAMX ([5]; rate 0.1250 kg/ha) | Preemergence herbicidal rating TRZAWR ([6]; rate 0.0156 kg/ha) | Preemergence herbicidal rating TRZAWR ([6]; rate 0.0313 kg/ha) | Preemergence herbicidal rating TRZAWR ([6]; rate 0.0625 kg/ha) | Preemergence herbicidal rating TRZAWR ([6]; rate 0.1250 kg/ha) | Preemergence herbicidal rating ORYSAT ([7]; rate 0.0156 kg/ha) | Preemergence herbicidal rating ORYSAT ([7]; rate 0.0313 kg/ha) | Preemergence herbicidal rating ORYSAT ([7]; rate 0.0625 kg/ha) | herbicidal effect rating, CYPSE ([8]; 0.1250 kg/ha) | herbicidal effect rating, CYPSE ([8]; 0.2500 kg/ha) | Preemergence herbicidal rating IPOHE ([10]; rate 0.0156 kg/ha) | Preemergence herbicidal rating IPOHE ([10]; rate 0.0313 kg/ha)
4.5: herbicidal rating ZEAMX ([12]; rate 0.0156 kg/ha) | herbicidal rating ZEAMX ([12]; rate 0.0313 kg/ha)
5.0: herbicidal effect rating, CYPIR ([3]; 0.1250 kg/ha) | herbicidal rating CASOB ([9]; rate 0.0313 kg/ha) | herbicidal rating ZEAMX ([12]; rate 0.0625 kg/ha)
3.0: herbicidal rating GALAP ([2]; rate 0.0313 kg/ha) | Preemergence herbicidal rating AMBEL ([4]; rate 0.1250 kg/ha)
7.0: Preemergence herbicidal rating CHEAL ([1]; rate 0.0313 kg/ha) | herbicidal effect rating, ECHORC ([11]; 0.0625 kg/ha) | herbicidal effect rating, ECHORC ([11]; 0.1250 kg/ha) | herbicidal effect rating, ECHORC ([11]; 0.2500 kg/ha)
4.0: herbicidal rating GALAP ([2]; rate 0.0625 kg/ha) | herbicidal effect rating, CYPIR ([3]; 0.0625 kg/ha) | Preemergence herbicidal rating AMBEL ([4]; rate 0.2500 kg/ha) | herbicidal rating CASOB ([9]; rate 0.0156 kg/ha)
6.0: herbicidal effect rating, CYPIR ([3]; 0.2500 kg/ha) | herbicidal effect rating, ECHORC ([11]; 0.0313 kg/ha)
2.0: herbicidal effect rating, CYPIR ([3]; 0.0313 kg/ha) | Preemergence herbicidal rating ORYSAT ([7]; rate 0.2500 kg/ha) | Preemergence herbicidal rating IPOHE ([10]; rate 0.0625 kg/ha) | Preemergence herbicidal rating IPOHE ([10]; rate 0.2500 kg/ha)
9.0: Preemergence herbicidal rating CHEAL ([1]; rate 0.0625 kg/ha) | Preemergence herbicidal rating CHEAL ([1]; rate 0.1250 kg/ha) | Preemergence herbicidal rating CHEAL ([1]; rate 0.2500 kg/ha) | herbicidal rating CASOB ([9]; rate 0.0625 kg/ha)
